Results reported in patent US10913757B2, “Hydroxycinnamic derivatives, methods and uses thereof” (UNIVERSIDADE DO PORTO, priority 2016, dated 2021).
Marks after values point to notes of the source that are not given here.

Tests used:
[1] = Redox properties by differential pulse and cyclic voltammetry; type: physicochemical
Method: In an embodiment, and as an example, AntiOxCINs redox properties were evaluated (Table 1). Redox potentials are correlated with the ability of an antioxidant to donate a hydrogen atom and/or an electron to a free radical.
However, for pyrogallol derivatives (AntiOxCIN4, AntiOxCIN5 and AntiOxCIN7), a significant decrease in redox potentials was observed (Ep=0.034-0.057 V) (Table 1).
The voltammograms presented a diffusion peak and an adsorption post-peak at a more anodic potential correspondent to the oxidation of dissolved and adsorbed forms of the compounds, respectively. The oxidation waves can be related to the oxidation process of the pyrogallol moiety. The cyclic voltammograms also show the presence of two overlapped anodic peaks. The anodic peaks appeared to correspond to irreversible processes as any distinct reduction wave was not seen on the cathodic sweep. The existence of the additional phenolic group in the pyrogallol systems, when compared with the catechol ones, seems to influence the stabilization of the semiquinone intermediate and in turn the oxidative mechanism.
(§1) In an embodiment, the electrochemical analytical data was obtained using a computer controlled potentiostat Autolab PGSTAT302N (Metrohm Autolab, Utrecht, Netherlands). Generally, cyclic voltammetry (CV) data was acquired at a scan rate of 50 mVs^−1. Differential pulse voltammetry (DPV) results were acquired at a step potential of 4 mV, pulse amplitude of 50 mV and scan rate of 8 mVs^−1. The electrochemical signals were monitored by the General Purpose Electrochemical System (GPES) version 4.9, software package. All electrochemical experiments were performed at room temperature in an electrochemical cell that was placed in a Faraday cage in order to minimize the contribution of background noise to the analytical signal.
(§2) In an embodiment, the process of evaluation of AntiOxCINs redox properties was conducted as follows: stock solutions of each compound (10 mM) were prepared by dissolving the appropriate amount in ethanol. The voltammetric working solutions were prepared in the electrochemical cell, at a final concentration of 0.1 mM. The […] supporting electrolyte was prepared by diluting […] to 100 mL. Voltammetric data was acquired in a three-electrode system consisting of a glassy carbon electrode (GCE, d=2 mm) as working electrode, a counter electrode of platinum wire and a saturated Ag/AgCl reference electrode. In an embodiment, the evaluation of AntiOxCINs lipophilic properties was performed as follows: the electrochemical cell was a four-electrode system with arrays of micro liquid-liquid interfaces (μlTIES) containing two Ag/AgCl reference electrodes and two counter electrodes of Pt, one in each phase. The microporous membrane was sealed with a fluorosilicone sealant (Dow Corning 730) onto a glass cylinder which was filled with 4.0 mL of the aqueous phase, where the aliquots of AntiOxCINs solutions were added. The membrane was then immersed into the organic phase contained in the cell. The organic phase reference solution (a 2 mM BTPPACI+2 mM NaCl aqueous solution) was mechanically stabilized The aqueous supporting electrolyte solution was a Tris-HCl buffer 10 mM pH 7.0.

[2] = Lipophilic properties by electrochemistry at ITIES (transfer potential); type: physicochemical; settings: aqueous phase to 1,6-dichlorohexane, DPV, C=0.32 mM
Method: In an embodiment, AntiOxCINs lipophilic properties were evaluated at physiological pH by electrochemistry. The used technique is often used to mimic the transfer of ionic drugs through biological membranes as the process occurs at the interface between two immiscible electrolyte solutions (ITIES). The transfer potential (Etr) at which the ionic drug, initially present in the aqueous phase (C=0.32 mM), is transferred to the 1,6-dichlorohexane (DCH) phase is measured by differential pulse voltammetry (DPV). In the ITIES model, the transfer potential (Etr) becomes less positive with the increasing of the drug lipophilic character.
as §1, §2

[3] = ABTS radical cation scavenging activity (TAC assay); type: biochemical; settings: ethanol
Text: (§3) In an embodiment, the AntiOxCINs antioxidant ranking activity hierarchy was established by in vitro non-cell methods. The selected total antioxidant capacity (TAC) assays (DPPH, ABTS and GO) involved the spectrophotometric measurement of the radical absorbance decrease as a result of an in situ radical deactivation by an antioxidant. Compounds with higher antioxidant activity display lower IC50 values. […] This decrease was attenuated/ameliorated by the increment of the spacer length and/or the introduction of additional hydroxyl group in the aromatic ring.
(§4) The radical scavenging activity of AntiOxCINs was evaluated by means of total antioxidant capacity assays based on DPPH., ABTS.^+ and GO. radicals. All these methods involved the spectrophotometric measurement of the absorbance decrease resulting from radical (DPPH., ABTS.^+ or GO.) deactivation with an antioxidant. The results were expressed in IC50, which is defined as the minimum antioxidant concentration necessary to reduce the amount of radical by 50%. Antioxidant assays were performed in a multiplate reader (Powerwave XS Microplate Reader) of Bio-Tech instruments.
In an embodiment, the ABTS.^+ scavenging activity was evaluated as follows: ethanolic solutions of the test compounds with increasing concentrations (range between 10 μM and 500 μM) were prepared. ABTS.^+ radical cation solution was obtained by addition of 150 mM aqueous potassium persulfate solution (163 μL) to 10 mL of 7 mM aqueous ABTS solution followed by storage in the dark at room temperature for 16 h (2.45 mM final concentration). The solution was then diluted in ethanol to reach the absorbance of 0.72±0.02. After addition of the compound (20 μL), in triplicate, to ABTS.^+ solution (180 μL) the spectrophotometric measurement was carried out each minute over 15 minutes. […] Dose-response curves were established for the determination of IC50 values. Data are means±SEM of three independent experiments.

[4] = GO radical scavenging activity (TAC assay); type: biochemical; settings: ethanol, absorbance 428 nm
Text: as §3, §4
In an embodiment, the GO′ scavenging activity was evaluated as follows: solutions of test compounds with concentrations from 5 μM to 75 μM were prepared in ethanol. An ethanolic solution of 5 mM GO′ was prepared and diluted to reach the absorbance of 1.00±0.02 at 428 nm. The addition (20 μL) in triplicate of compound solution to GO. solution (180 μL) was followed by absorbance measurement at 428 nm over 30 minutes, in the dark, at room temperature. […] Dose-response curves were established for the determination of IC50 values. Data are means±SEM of three independent experiments.

[5] = DPPH radical scavenging activity (TAC assay); type: biochemical; settings: ethanol, absorbance 515 nm
Text: as §3, §4
In an embodiment, the DPPH. radical scavenging activity was performed as follows: solutions of the test compounds with increasing concentrations (range between 0 μM and 500 μM) were prepared in ethanol. A DPPH′ ethanolic solution (6.85 mM) was also prepared and then diluted to reach the absorbance of 0.72±0.02 at 515 nm. Each compound solution (20 μL) was added to 180 μL of DPPH′ solution in triplicate, and the absorbance at 515 nm was recorded minutely over 45 minutes. […] Dose-response curves were established for the determination of IC50 values. Data are means±SEM of three independent experiments.

[6] = system: mouse myoblast C2C12 cells; settings: cited from earlier work

For `CS(=O)(=O)[O-].O=C(/C=C/c1ccc(O)c(O)c1)NCC[P+](c1ccccc1)(c1ccccc1)c1ccccc1` [AntiOxCIN1, reference compound], the “reversibility of the oxidation reaction” value ([1]; cyclic voltammetry, physiological pH) was “reversible reaction”, the “Ep (redox potential)” value ([1]; physiological pH (7.4), voltammetry, listed as AntiOxClN1) was 0.166^a) V and the “Etr (transfer potential)” value [2] was 0.572 V. It also gave an IC50 [3] of 33.3 µM, an IC50 [4] of 4.5 µM and an IC50 [5] of 35.4 µM. The “protection against oxidative stress stressors (H2O2, linoleic acid-hydroperoxides)” value [6] was “protected”.
